Data on five molecules can be found in patent US9839643B2, “Palladium complex with high anticancer activity” (ULUDAG ÜNIVERSITESI TTO, priority 2014, dated 2017).

Each structure is given as a SMILES string.

One series relates to HCT116. The series is classed as cell-based. The conditions noted are these: for TGI (total growth inhibition) / GI50 / CC50: 48 hour incubation, unit not given (tested from 100 μM); for GI50: read-out: GI50 (dose inhibiting 50% cell growth); for CC50: read-out: LC50 (dose killing 50% of initially seeded cells). Here is the method:
(§1) Anticancer activity tests were made on colon (HCT116, HT29, HCT15), lung (A549, H460) and ovarian (OVCARS, OVCAR3, NCI-ADRRES) cancer cell lines in vitro. All cell lines were obtained from American Type Culture Collection (Manassas, Va., USA) or American National Cancer Institute (NCl, USA). All cell lines were grown in RPMI1640 medium supplemented with 25 mM HEPES, 2 mM L-Glutamine, 5-10% fetal calf serum and antibiotics at 37° C. in a humidified 5% CO2 atmosphere.
(§2) The effect of the aforementioned compound on the selected cell lines indicated above was tested with Sulforhodamine B (SRB) assay that is also used by American National Cancer Institute. 100 μL of cancer cells were seeded at densities between 5.000-40.000 per well of a 96 well plate. The cells were incubated for 24 h for adaptation. […] The tested complex was dissolved in DMSO at 100 μM initial concentration and diluted to obtain 10 different concentrations as 1:2, 1:4 or 1:10. Every different concentration was analyzed in triplicates and in two independent experiments. The cells were fixed with 50% (w/v) ice-cold TCA in situ after 48 hour incubation. SRB dye bound to the cells was dissolved by unbuffered 10 mM Tris solution and absorbance values were measured at 530 nm in an ELISA microplate reader. Percentages for cell growth that were calculated from absorbance measurements (initial: TZ, control: C, complex at different concentrations: Ti) are as described below:
(§3) Gl50 (dose inhibiting 50% cell growth)=[Ti−Tz)/(C-Tz)]×100=50
(§4) TGI (total growth inhibition): Ti=Tz
(§5) LC50 (dose killing 50% of initially seeded cells)=[(Ti−Tz)/Tz]×100=−50

A further series concerns OVCAR3. In kind it is cell-based. To be noted: 48 hour incubation, unit not given (tested from 100 μM); for GI50: read-out: GI50 (dose inhibiting 50% cell growth). Here is the method: as §1, §2, §3, §4, §5
In the next series the test system is HCT15. The series is classed as cell-based. The conditions noted are these: for TGI (total growth inhibition) / GI50 / CC50: 48 hour incubation, unit not given (tested from 100 μM); for GI50: read-out: GI50 (dose inhibiting 50% cell growth); for CC50: read-out: LC50 (dose killing 50% of initially seeded cells). Here is the method: as §1, §2, §3, §4, §5
The next series has as its system NCI-ADRRES. In kind it is cell-based. To be noted: 48 hour incubation, unit not given (tested from 100 μM); for GI50: read-out: GI50 (dose inhibiting 50% cell growth); for CC50: read-out: LC50 (dose killing 50% of initially seeded cells). Here is the method:
as §1, §2, §3, §4, §5

Another series relates to H460. The series is classed as cell-based. To be noted: 48 hour incubation, unit not given (tested from 100 μM); for GI50: read-out: GI50 (dose inhibiting 50% cell growth); for CC50: read-out: LC50 (dose killing 50% of initially seeded cells). Here is the method: as §1, §2, §3, §4, §5
Another series relates to HT29. The series is classed as cell-based. To be noted: for TGI (total growth inhibition) / GI50 / CC50: 48 hour incubation, unit not given (tested from 100 μM); for GI50: read-out: GI50 (dose inhibiting 50% cell growth); for CC50: read-out: LC50 (dose killing 50% of initially seeded cells). Here is the method: as §1, §2, §3, §4, §5
The test system of the next series is OVCAR5. The series is classed as cell-based. To be noted: 48 hour incubation, unit not given (tested from 100 μM); for GI50: read-out: GI50 (dose inhibiting 50% cell growth); for CC50: read-out: LC50 (dose killing 50% of initially seeded cells). As to the method:
as §1, §2, §3, §4, §5

Another series relates to A549. The series is classed as cell-based. The conditions noted are these: 48 hour incubation, unit not given (tested from 100 μM); for GI50: read-out: GI50 (dose inhibiting 50% cell growth); for CC50: read-out: LC50 (dose killing 50% of initially seeded cells). As to the method: as §1, §2, §3, §4, §5
For another series, the system named is A549 cells. To be noted: cited from earlier work.
A further series deals with HCT116 cancer cells. Nature of the series: HCT116 xenograft study in NOD/SCID mice. In kind it is in vivo. Also noted: key to tumor size: tumor volume in mm^3, (a×b²)/2 from caliper length and width. The conditions noted are these: for tumor size / ΔT/ΔC % value: HCT116 xenograft, complex 40 mg/kg, oxaliplatin 5 mg/kg; for tumor size: no unit in table (method gives tumor volume in mm^3); for ΔT/ΔC % value: day 22, highly active compounds have values less than 42%. Here is the method:
Xenograft studies were made by using HCT116 colon cancer cell lines after observing that the subject of the invention, palladium(II) complex, is especially effective on colon cancer cells. […] To obtain the xenografts, approximately 10^6 cells from exponentially growing HCT116 cells were intradermally injected in the axillae of 6-8 weeks old NOD/SCID mice by using the English double sided trocar implantation method. Two separate injections were made to each mouse. Two tumor inocula were added to each mouse in order to produce one tumor load for each mouse. […] These positive effects are the beneficial aspects of the English system.
Treatment was started in randomly chosen animal groups when the tumor volume reached 100-200 mm^3. […] The treatment was performed in 5 days of application and 2 days of resting periods. Tumor volume was calculated from [(axb^2)/2] formula. In this formula, a and b are tumor length and width which are measured by vernier caliper. Measurements were repeated twice weekly. Treated animals received a single dose from the drugs. Apart from tumor volume, ΔT/ΔC % values were calculated from ΔT═T−D0 and ΔC═C−D0 equations. D0 is the mean tumor volume at the beginning of the treatment, T is the mean tumor volume of treated mice and C is the mean tumor volume of untreated (not injected with complex) mice which is used as a control. […] Weight loss, neurological disorders and changes in diet were recorded as indication of toxicity (side effects). The experiments were terminated when the tumor volume reached approximately to 1000-1500 mm^3.

The mark [1] stands for this setting: Day 19 (value equal in all groups, start of treatment).
[2] abbreviates: versus cisplatin, oxaliplatin and carboplatin.

Usually GI50 stands for the concentration that inhibits growth by half. On to `N.N.[Cl][Pt][Cl]` [Cisplatin, cisplatin], for which the “TGI (total growth inhibition)” value in the series on HCT116 was 90.2; in the series with OVCAR3, above 100; in the series on HCT15, 85.9; in the series with NCI-ADRRES, above 100; in the series on H460, 50.3; with HT29, 92.0. The entries for the “TGI (total growth inhibition)” value with OVCAR5 and with A549 were above 100 and 55.1, respectively. In addition, the GI50 with HCT116 came to 24.8 µM; in the series on OVCAR3, 34.3 µM; with HCT15, 57.3 µM; in the series with NCI-ADRRES, 9.9 µM; in the series on H460, 8.9 µM; in the series on HT29, 29.8 µM. For the same molecule, the GI50 with OVCAR5 is 57.8 µM; in the series on A549, 6.6 µM.

For the molecule `N.N.O=C([O-])C1(C(=O)[O-])CCC1.[Pt+2]` [Carboplatin, carboplatin], the “TGI (total growth inhibition)” value in the series with HCT116, in the series on OVCAR3, in the series on HCT15, in the series with NCI-ADRRES, with H460 and in the series with HT29 was above 100 throughout. Further, the “TGI (total growth inhibition)” value with OVCAR5 and with A549 was above 100 throughout. Also, the GI50 in the series with HCT116, in the series with OVCAR3, in the series on HCT15, with NCI-ADRRES, with H460 and in the series on HT29 was above 100 µM each time. Moreover, the GI50 with OVCAR5 and in the series with A549 was above 100 µM in each case. Also, the CC50 in the series on HCT116, in the series on HCT15, in the series on NCI-ADRRES, with H460, in the series with HT29 and with OVCAR5 was above 100 µM in each case. In addition, the CC50 with A549 was above 100 µM.

For `O.O.O=C1[N-]S(=O)(=O)c2ccccc21.[Cl][Pd-2]12[n+]3ccccc3C[NH+]1Cc1cccc[n+]12` [[Pd(bpma)Cl](sac)·2H2O], the cytotoxic effect result in the series on A549 cells is “showed a cytotoxic effect on A549 cells, similar to cisplatin”.

For `CCC1(CC)C(=O)NC(=O)[N]([Pd-2]23[n+]4ccccc4C[NH+]2Cc2cccc[n+]23)C1=O.O.[Cl-]` [[Pd(bpma)(barb)]Cl•H2O, [Pd(bpma)(barb)]Cl·H2O], the tumor size in the series on HCT116 cancer cells (setting [1]) came out at 245.96; in the series with HCT116 cancer cells (Day 22) it was 195.61 ± 151.45; with HCT116 cancer cells (Day 26), 373.88 ± 157.42; with HCT116 cancer cells (Day 29) it was 577.38 ± 157.37; in the series with HCT116 cancer cells (Day 33) it was 782.22 ± 228.55. Also, the “decrease of tumor volume compared to oxaliplatin” value in the series on HCT116 cancer cells (all time points of measurement, complex 40 mg/kg vs oxaliplatin 5 mg/kg) was “decreased the tumor volume more effectively than oxaliplatin in all time points of measurement”. Further, in the series with HCT116 cancer cells, the ΔT/ΔC % value was −29.88%. The “TGI (total growth inhibition)” value came to 9.1 with HCT116; 25.2 in the series with OVCAR3; 9.9 in the series on HCT15; 10.0 in the series on NCI-ADRRES; 75.9 in the series with H460; 6.6 with HT29. The “TGI (total growth inhibition)” value in the series with OVCAR5 is given as 63.5; with A549, 80.1. Also, the concentration for 50% growth inhibition (GI50) with HCT116 came out at 4.9 µM; in the series on OVCAR3, 6.5 µM; with HCT15, 6.8 µM; in the series with NCI-ADRRES it was 5.6 µM; with H460, 44.4 µM; in the series with HT29 it was 3 µM. Moreover, the GI50 turned out to be 40 µM in the series on OVCAR5 and 43.1 µM in the series on A549. Further, the CC50 with HCT116 was 82.4 µM; in the series on HCT15, 89.1 µM; with NCI-ADRRES, above 100 µM; with H460, above 100 µM; in the series with HT29, 22 µM; in the series with OVCAR5 it was 87 µM. Besides, the CC50 with A549 is above 100 µM. Further, the “cytotoxic effect compared to anticancer drugs” value in the series with HCT116 (setting [2]), with HCT15 (setting [2]) and in the series with HT29 (setting [2]) was “selectively effective” in each case.

As for `O=C1[O][Pt]2([NH][C@@H]3CCCC[C@H]3[NH]2)[O]C1=O` [Oxaliplatin, oxaliplatin], the tumor size came out at 245.96 in the series on HCT116 cancer cells (setting [1]); 361.82 ± 153.96 with HCT116 cancer cells (Day 22); 538.00 ± 203.51 in the series on HCT116 cancer cells (Day 26); 622.29 ± 152.76 with HCT116 cancer cells (Day 29); 847.06 ± 176.45 with HCT116 cancer cells (Day 33). In the series on HCT116 cancer cells, the ΔT/ΔC % value result is reported as “+70.60%”. Besides, the “TGI (total growth inhibition)” value in the series on HCT116 is 64.1; in the series on OVCAR3 it was above 100; in the series on HCT15 it was 17.2; with NCI-ADRRES, above 100; in the series with H460, 95.6; in the series on HT29 it was 56.5. Moreover, the “TGI (total growth inhibition)” value in the series with OVCAR5 was above 100; in the series with A549, 58.2. Also, the 50% growth inhibitory concentration (GI50) with HCT116 amounted to 0.9 µM; in the series with OVCAR3, 9.1 µM; in the series with HCT15, 6 µM; in the series with NCI-ADRRES, 24.8 µM; with H460, 6.8 µM; with HT29, 6.3 µM. Besides, the figures for the GI50 in the series on OVCAR5 and in the series with A549 were 50.7 µM and 4.4 µM, respectively.
